Data published in ChEMBL document CHEMBL1909046, “DrugMatrix in vitro pharmacology data”.

Key:
[1] = molecular target: Beta-1 adrenergic receptor (Homo sapiens, UniProt P08588); experiment: DRUGMATRIX: Adrenergic beta1 radioligand binding (ligand: [125I] Cyanopindolol); format: cell membranes, CHO-K1, Membrane; conditions: cho-k1; Not Active = under 50% inhibition at 10 µM
[2] = molecular target: Beta-3 adrenergic receptor (Homo sapiens, UniProt P13945); experiment: DRUGMATRIX: Adrenergic beta3 radioligand binding (ligand: [125I] Cyanopindolol); format: cell membranes, HEK293, Membrane; conditions: Not Active = under 50% inhibition at 10 µM
[3] = molecular target: T1, Type-2 angiotensin II receptor (Homo sapiens, UniProt P50052); format: cell-based; conditions: cho-k1; also: in other assays of this panel Not Active means under 50% inhibition at 10 µM
T1 sequence (P50052 whole entry): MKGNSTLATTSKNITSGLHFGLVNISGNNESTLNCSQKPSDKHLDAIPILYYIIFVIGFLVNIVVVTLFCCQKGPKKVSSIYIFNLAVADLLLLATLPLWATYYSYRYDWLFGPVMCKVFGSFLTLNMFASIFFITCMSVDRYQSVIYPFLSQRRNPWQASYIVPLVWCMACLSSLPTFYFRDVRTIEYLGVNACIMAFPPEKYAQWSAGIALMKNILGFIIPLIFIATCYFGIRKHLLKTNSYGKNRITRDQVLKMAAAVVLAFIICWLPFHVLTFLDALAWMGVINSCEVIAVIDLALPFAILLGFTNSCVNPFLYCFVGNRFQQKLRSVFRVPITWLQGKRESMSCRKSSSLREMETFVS

[4] = molecular target: T2, Vasoactive intestinal polypeptide receptor 1 (Homo sapiens, UniProt P32241); format: cell membranes, Membrane; conditions: ht-29; also: in other assays of this panel Not Active means under 50% inhibition at 10 µM
T2 sequence (P32241 whole entry): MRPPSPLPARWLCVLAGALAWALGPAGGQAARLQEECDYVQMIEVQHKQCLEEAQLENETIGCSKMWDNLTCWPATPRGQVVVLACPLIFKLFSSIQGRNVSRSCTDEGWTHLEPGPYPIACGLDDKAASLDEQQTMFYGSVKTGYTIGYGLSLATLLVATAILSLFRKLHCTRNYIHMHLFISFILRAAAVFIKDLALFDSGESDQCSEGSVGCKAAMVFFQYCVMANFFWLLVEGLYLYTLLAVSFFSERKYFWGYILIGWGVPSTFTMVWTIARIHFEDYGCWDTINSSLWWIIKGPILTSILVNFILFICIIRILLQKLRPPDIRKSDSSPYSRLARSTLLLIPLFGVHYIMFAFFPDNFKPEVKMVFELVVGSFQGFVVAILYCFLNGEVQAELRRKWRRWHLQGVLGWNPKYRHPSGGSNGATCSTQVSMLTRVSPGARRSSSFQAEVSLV

D(4) dopamine receptor = molecular target: T3, D(4) dopamine receptor (Homo sapiens, UniProt P21917); experiment: DRUGMATRIX: Dopamine D4.2 radioligand binding (ligand: [3H] Spiperone); format: cell membranes, CHO-K1, Membrane; conditions: Not Active = under 50% inhibition at 10 µM
T3 sequence (P21917 whole entry): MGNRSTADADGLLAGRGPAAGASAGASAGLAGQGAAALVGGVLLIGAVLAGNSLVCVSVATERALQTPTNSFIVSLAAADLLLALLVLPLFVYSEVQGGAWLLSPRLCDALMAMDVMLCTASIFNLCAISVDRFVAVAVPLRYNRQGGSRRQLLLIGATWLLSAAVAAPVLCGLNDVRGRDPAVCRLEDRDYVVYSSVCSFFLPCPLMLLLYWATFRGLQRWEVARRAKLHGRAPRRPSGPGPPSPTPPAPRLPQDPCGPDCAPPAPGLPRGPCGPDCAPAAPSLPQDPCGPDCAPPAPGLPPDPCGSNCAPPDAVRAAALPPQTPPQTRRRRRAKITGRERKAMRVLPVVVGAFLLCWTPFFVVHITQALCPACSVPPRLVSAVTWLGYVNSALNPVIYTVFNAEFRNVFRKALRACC

[5] = DRUGMATRIX: Glutamate, NMDA, Agonism radioligand binding (ligand: [3H] CGP-39653); format: cell membranes, Rattus norvegicus, Wistar, Cerebral cortex, Membrane; conditions: Not Active = under 50% inhibition at 10 µM
[6] = molecular target: Protein phosphatase 3 catalytic subunit alpha (Homo sapiens, UniProt Q08209); design: species or system Escherichia coli;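 also: inhibition of calcineurin (PP2B) enzyme activity, measured with DiFMUP as the substrate; in other assays of this panel Not Active means under 50% inhibition at 10 µM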
Adenosine receptor A2a = Adenosine receptor A2a (Homo sapiens, UniProt P29274); experiment: DRUGMATRIX: Adenosine A2A radioligand binding (ligand: […]); format: cell membranes, HEK293, Membrane; conditions: hek293; Not Active = under 50% inhibition at 10 µM
Chain of Adenosine receptor A2a (P29274 whole entry): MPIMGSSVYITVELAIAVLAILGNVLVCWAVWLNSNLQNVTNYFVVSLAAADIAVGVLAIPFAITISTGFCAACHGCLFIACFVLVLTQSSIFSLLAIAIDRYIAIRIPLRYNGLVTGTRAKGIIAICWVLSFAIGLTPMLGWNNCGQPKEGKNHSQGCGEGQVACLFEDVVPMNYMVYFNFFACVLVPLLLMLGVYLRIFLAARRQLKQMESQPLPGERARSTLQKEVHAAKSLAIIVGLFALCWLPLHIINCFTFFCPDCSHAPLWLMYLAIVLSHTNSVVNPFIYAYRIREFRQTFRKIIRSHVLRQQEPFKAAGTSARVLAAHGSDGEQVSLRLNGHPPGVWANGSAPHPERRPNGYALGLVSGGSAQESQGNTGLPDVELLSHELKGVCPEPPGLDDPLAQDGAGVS

Chain of Beta-1 adrenergic receptor (P08588 whole entry): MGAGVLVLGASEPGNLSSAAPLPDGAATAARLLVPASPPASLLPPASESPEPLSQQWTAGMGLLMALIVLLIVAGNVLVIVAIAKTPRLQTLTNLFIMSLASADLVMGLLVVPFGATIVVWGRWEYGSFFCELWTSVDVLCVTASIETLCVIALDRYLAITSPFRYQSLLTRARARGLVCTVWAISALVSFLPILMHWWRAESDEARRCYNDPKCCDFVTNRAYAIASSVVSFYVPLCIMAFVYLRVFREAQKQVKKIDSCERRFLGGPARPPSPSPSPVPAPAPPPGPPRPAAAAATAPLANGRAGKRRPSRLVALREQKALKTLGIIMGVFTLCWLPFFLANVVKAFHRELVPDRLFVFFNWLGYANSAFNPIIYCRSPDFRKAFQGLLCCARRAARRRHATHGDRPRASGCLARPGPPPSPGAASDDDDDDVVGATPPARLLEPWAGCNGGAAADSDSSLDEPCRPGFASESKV
Chain of Beta-3 adrenergic receptor (P13945 whole entry): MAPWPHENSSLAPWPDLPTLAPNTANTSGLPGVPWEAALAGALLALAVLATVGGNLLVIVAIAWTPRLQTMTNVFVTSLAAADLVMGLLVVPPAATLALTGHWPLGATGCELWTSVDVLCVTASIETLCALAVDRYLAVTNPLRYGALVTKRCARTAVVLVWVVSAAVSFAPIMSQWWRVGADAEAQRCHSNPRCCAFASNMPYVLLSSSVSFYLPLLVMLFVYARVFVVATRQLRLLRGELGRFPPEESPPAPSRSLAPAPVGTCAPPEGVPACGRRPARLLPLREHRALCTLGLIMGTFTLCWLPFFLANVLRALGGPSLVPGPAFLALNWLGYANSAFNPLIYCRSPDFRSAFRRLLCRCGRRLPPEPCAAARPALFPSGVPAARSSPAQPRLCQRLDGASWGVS

O=C(Oc1ccccc1C(=O)O)c1ccccc1O [SALSALATE]
IC50 [1]: Not Active | IC50 ([2]; hek293): Not Active | IC50 [3]: Not Active | IC50 [4]: Not Active | IC50 (D(4) dopamine receptor; cho-k1): Not Active | IC50 [5]: Not Active | Ki [5]: Not Active | IC50 [6]: Not Active | IC50 (Adenosine receptor A2a): Not Active

CNC1(c2ccccc2Cl)CCCCC1=O (stereo not drawn) [KETAMINE]
IC50 [1]: Not Active | IC50 ([2]; hek293): Not Active | IC50 [3]: Not Active | IC50 [4]: Not Active | IC50 (D(4) dopamine receptor; cho-k1): Not Active | IC50 [5]: Not Active | Ki [5]: Not Active | IC50 [6]: Not Active | IC50 (Adenosine receptor A2a): Not Active

Fc1ccc(C(c2ccc(F)cc2)N2CCN(C/C=C/c3ccccc3)CC2)cc1 [FLUNARIZINE]
IC50 [1]: Not Active | IC50 ([2]; hek293): Not Active | IC50 [3]: Not Active | IC50 [4]: Not Active | IC50 (D(4) dopamine receptor; cho-k1): Not Active | IC50 [6]: Not Active | IC50 (Adenosine receptor A2a): Not Active

CN[C@H]1CC[C@@H](c2ccc(Cl)c(Cl)c2)c2ccccc21 [SERTRALINE]
IC50 [1]: Not Active | IC50 ([2]; hek293): Not Active | IC50 [3]: Not Active | IC50 [4]: Not Active | IC50 (D(4) dopamine receptor; cho-k1): Not Active | IC50 [6]: Not Active | IC50 (Adenosine receptor A2a): Not Active

O=C(Nc1ccc(Br)cc1)c1cc(Br)cc(Br)c1O [TRIBROMSALAN]
IC50 [1]: Not Active | IC50 ([2]; hek293): Not Active | IC50 [3]: Not Active | IC50 [4]: Not Active | IC50 (D(4) dopamine receptor; cho-k1): Not Active | IC50 [5]: Not Active | Ki [5]: Not Active | IC50 [6]: Not Active | IC50 (Adenosine receptor A2a): Not Active

CC(C)NCC(O)c1ccc(O)c(O)c1 (stereo not drawn) [ISOPROTERENOL]
IC50 ([2]; hek293): Not Active | IC50 [3]: Not Active | IC50 [4]: Not Active | IC50 (D(4) dopamine receptor; cho-k1): Not Active | IC50 [5]: Not Active | Ki [5]: Not Active | IC50 [6]: Not Active | IC50 (Adenosine receptor A2a): Not Active

Cc1cccc(C)c1OCC(C)N (stereo not drawn) [MEXILETINE]
IC50 [1]: Not Active | IC50 ([2]; hek293): Not Active | IC50 [3]: Not Active | IC50 [4]: Not Active | IC50 (D(4) dopamine receptor; cho-k1): Not Active | IC50 [5]: Not Active | Ki [5]: Not Active | IC50 [6]: Not Active | IC50 (Adenosine receptor A2a): Not Active

MANGANESE CHLORIDE ANHYDROUS
IC50 [1]: Not Active | Ki [1]: Not Active | IC50 ([2]; hek293): Not Active | Ki ([2]; hek293): Not Active | IC50 [3]: Not Active | Ki [3]: Not Active | IC50 [4]: Not Active | Ki [4]: Not Active | IC50 (D(4) dopamine receptor; cho-k1): Not Active | Ki (D(4) dopamine receptor; cho-k1): Not Active | IC50 [5]: Not Active | Ki [5]: Not Active | IC50 [6]: Not Active | Ki [6]: Not Active | IC50 (Adenosine receptor A2a): Not Active | Ki (Adenosine receptor A2a): Not Active

CCN(CC)CCNC(=O)c1cc(S(C)(=O)=O)ccc1OC [TIAPRIDE]
IC50 [1]: Not Active | IC50 ([2]; hek293): Not Active | IC50 [3]: Not Active | IC50 [4]: Not Active | IC50 (D(4) dopamine receptor; cho-k1): Not Active | IC50 [5]: Not Active | Ki [5]: Not Active | IC50 [6]: Not Active | IC50 (Adenosine receptor A2a): Not Active

Clc1ccc(COC(Cn2ccnc2)c2ccc(Cl)cc2Cl)cc1 (stereo not drawn) [ECONAZOLE]
IC50 ([2]; read-out: IC50): 6.15 µM | Ki ([2]; read-out: Ki): 4.61 µM | IC50 [3]: Not Active | IC50 [4]: Not Active | IC50 (D(4) dopamine receptor; read-out: IC50): 9.33 µM | Ki (D(4) dopamine receptor; read-out: Ki): 3.27 µM | IC50 [6]: Not Active

COc1c2occc2cc2ccc(=O)oc12 [METHOXSALEN]
IC50 [1]: Not Active | IC50 ([2]; hek293): Not Active | IC50 [3]: Not Active | IC50 [4]: Not Active | IC50 (D(4) dopamine receptor; cho-k1): Not Active | IC50 [5]: Not Active | Ki [5]: Not Active | IC50 [6]: Not Active | IC50 (Adenosine receptor A2a): Not Active

O.O.O.O.O.O.[Cl-].[Cl-].[Sr+2] [STRONTIUM CHLORIDE HEXAHYDRATE]
IC50 [1]: Not Active | IC50 ([2]; hek293): Not Active | IC50 [3]: Not Active | IC50 [4]: Not Active | IC50 (D(4) dopamine receptor; cho-k1): Not Active | IC50 [5]: Not Active | Ki [5]: Not Active | IC50 [6]: Not Active | IC50 (Adenosine receptor A2a): Not Active
